# Test results from the supplement of paper PMC9663587.
# Experiments:
# [1] = compound: CC(=O)c1c(C)c2cnc(Nc3ccc(N4CCNCC4)cn3)nc2n(C2CCCC2)c1=O; assay: increase in dead-cell fraction, 72 h; higher = more death;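 also: breast cancer cell lines in 384-well plates, stained with Hoechst plus LIVE/DEAD far red dye and imaged, cells above an LDR intensity threshold counted dead, Hoechst-negative corpses included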
# [2] = compound: CCc1cnn2c(NCc3ccc[n+]([O-])c3)cc(N3CCCC[C@H]3CCO)nc12; assay: as above
# [3] = compound: CN(C)C/C=C/C(=O)Nc1ccc(C(=O)Nc2cccc(Nc3ncc(Cl)c(-c4c[nH]c5ccccc45)n3)c2)cc1 [THZ1]; assay: as above
# [4] = compound: CN(C)C(=O)c1cc2cnc(Nc3ccc(N4CCNCC4)cn3)nc2n1C1CCCC1 [LEE011/Ribociclib]; assay: as above
# [5] = compound: CCN1CCN(Cc2ccc(Nc3ncc(F)c(-c4cc(F)c5nc(C)n(C(C)C)c5c4)n3)nc2)CC1; assay: as above
# [6] = compound: CCOc1cc2ncc(C#N)c(Nc3ccc(OCc4ccccn4)c(Cl)c3)c2cc1NC(=O)/C=C/CN(C)C [Neratinib/HKI272]; assay: as above
# [7] = compound: CC(=O)c1c(C)c2cnc(Nc3ccc(N4CCN(CCOCCOCCOCCNC(=O)COc5cccc6c5C(=O)N(C5CCC(=O)NC5=O)C6=O)CC4)cn3)nc2n(C2CCCC2)c1=O [BSJ-03-123]; assay: as above
# [8] = compound: CN1CC[C@H](c2c(O)cc(O)c3c(=O)cc(-c4ccccc4Cl)oc23)[C@H](O)C1 [Flavopiridol]; assay: as above
# [9] = compound: CC(C)NC[C@@H](C(=O)N1CCN(c2ncnc3c2[C@H](C)C[C@H]3O)CC1)c1ccc(Cl)cc1 [Ipatasertib/GDC0068]
# [10] = compound: COc1ccc2c(c1)[C@]1(C[C@H]1c1ccc3c(/C=C/c4ccc(CN5C[C@@H](C)O[C@@H](C)C5)cc4)n[nH]c3c1)C(=O)N2
# [11] = compound: NC(=O)Nc1cc(-c2cccc(F)c2)sc1C(=O)N[C@H]1CCCNC1 [AZD7762]
# [12] = compound: O=C1NC(=O)[C@@H](c2cn3c4c(cccc24)CCC3)[C@@H]1c1c[nH]c2ccccc12 [Tivantinib/ARQ197]
# [13] = compound: C[C@@H]1COCCN1c1cc(C2([S@](C)(=N)=O)CC2)nc(-c2cc[nH]c3nccc2-3)n1 [AZD6738]
# [14] = compound: CN(C)C/C=C/C(=O)Nc1ccc(O[C@@H]2CCC[C@@H](Nc3ncc(Cl)c(-c4c[nH]c5ccccc45)n3)C2)cc1 [BSJ-01-175]
# [15] = compound: CCN1CCN(Cc2ccc(Nc3ncc(F)c(-c4cc(F)c5nc(C)n(C(C)C)c5c4)n3)nc2)CC1
# [16] = compound: CCC1=CN=CN=C1N2CCN(CC2)CC3=NC4=C(N3)C=C(C=C4)C(F)(F)F
# [17] = compound: CNC(=O)c1cccc(-c2ccc3c(N4CCOC[C@@H]4C)nc(N4CCOC[C@@H]4C)nc3n2)c1 [AZD2014]
# [18] = compound: O=C(CCCCCCC(=O)Nc1ccccc1)NO [Vorinostat]
# [19] = compound: CC(=O)Nc1cccc(-n2c(=O)n(C3CC3)c(=O)c3c(Nc4ccc(I)cc4F)n(C)c(=O)c(C)c32)c1
# 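For GR50, 72 h in this document: breast cancer and non-malignant breast epithelial cell lines, Deep Dye Drop or Dye Drop imaging, nine half-log doses, GR normalized to time-zero plates and DMSO-only controls.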
cell line,measurement,setting,value
SUM52PE,increase in dead-cell fraction,[1]; 0.0003162 µM,0.0036
same,increase in dead-cell fraction,[1]; 0.001 µM,-0.0018
same,increase in dead-cell fraction,[1]; 0.003162 µM,-0.0008
same,increase in dead-cell fraction,[1]; 0.01 µM,0.0002
same,increase in dead-cell fraction,[1]; 0.03162 µM,-0.0011
same,increase in dead-cell fraction,[1]; 0.1 µM,0.0033
same,increase in dead-cell fraction,[1]; 0.3162 µM,0.0047
same,increase in dead-cell fraction,[1]; 1 µM,0.006
same,increase in dead-cell fraction,[1]; 3.162 µM,0.0091
same,increase in dead-cell fraction,[2]; 0.0001 µM,0.0037
same,increase in dead-cell fraction,[2]; 0.0003162 µM,0.0003
same,increase in dead-cell fraction,[2]; 0.001 µM,0.0018
same,increase in dead-cell fraction,[2]; 0.003162 µM,0.0012
same,increase in dead-cell fraction,[2]; 0.01 µM,0.006
same,increase in dead-cell fraction,[2]; 0.03162 µM,0.101
same,increase in dead-cell fraction,[2]; 0.1 µM,0.333
same,increase in dead-cell fraction,[2]; 0.3162 µM,0.419
same,increase in dead-cell fraction,[2]; 1 µM,0.155
same,increase in dead-cell fraction,[3]; 0.0001 µM,0.0004
same,increase in dead-cell fraction,[3]; 0.0003162 µM,0.0008
same,increase in dead-cell fraction,[3]; 0.001 µM,0.0052
same,increase in dead-cell fraction,[3]; 0.003162 µM,0.0023
same,increase in dead-cell fraction,[3]; 0.01 µM,0.002
same,increase in dead-cell fraction,[3]; 0.03162 µM,0.061
same,increase in dead-cell fraction,[3]; 0.1 µM,0.093
same,increase in dead-cell fraction,[3]; 0.3162 µM,0.137
same,increase in dead-cell fraction,[3]; 1 µM,0.513
same,increase in dead-cell fraction,[4]; 0.001 µM,0.0005
same,increase in dead-cell fraction,[4]; 0.003162 µM,0.0031
same,increase in dead-cell fraction,[4]; 0.01 µM,-0.0001
same,increase in dead-cell fraction,[4]; 0.03162 µM,0.0002
same,increase in dead-cell fraction,[4]; 0.1 µM,-0.0001
same,increase in dead-cell fraction,[4]; 0.3162 µM,0.0042
same,increase in dead-cell fraction,[4]; 1 µM,0.0047
same,increase in dead-cell fraction,[4]; 3.162 µM,0.0047
same,increase in dead-cell fraction,[4]; 10 µM,0.0071
same,increase in dead-cell fraction,[5]; 0.001 µM,-0.0031
same,increase in dead-cell fraction,[5]; 0.003162 µM,-0.0003
same,increase in dead-cell fraction,[5]; 0.01 µM,0.0005
same,increase in dead-cell fraction,[5]; 0.03162 µM,0.0052
same,increase in dead-cell fraction,[5]; 0.1 µM,0.0077
same,increase in dead-cell fraction,[5]; 0.3162 µM,0.0061
same,increase in dead-cell fraction,[5]; 1 µM,0.0107
same,increase in dead-cell fraction,[5]; 3.162 µM,0.0058
same,increase in dead-cell fraction,[5]; 10 µM,0.0135
same,increase in dead-cell fraction,[6]; 0.0003162 µM,-0.0009
same,increase in dead-cell fraction,[6]; 0.001 µM,0.0018
same,increase in dead-cell fraction,[6]; 0.003162 µM,0.0022
same,increase in dead-cell fraction,[6]; 0.01 µM,0.0007
same,increase in dead-cell fraction,[6]; 0.03162 µM,0.0026
same,increase in dead-cell fraction,[6]; 0.1 µM,0.0033
same,increase in dead-cell fraction,[6]; 0.3162 µM,0.0005
same,increase in dead-cell fraction,[6]; 1 µM,0.0053
same,increase in dead-cell fraction,[6]; 3.162 µM,0.0166
same,increase in dead-cell fraction,[7]; 0.001 µM,-0.0027
same,increase in dead-cell fraction,[7]; 0.003162 µM,0.001
same,increase in dead-cell fraction,[7]; 0.01 µM,0.0043
same,increase in dead-cell fraction,[7]; 0.03162 µM,0.0027
same,increase in dead-cell fraction,[7]; 0.1 µM,0.0025
same,increase in dead-cell fraction,[7]; 0.3162 µM,0.0035
same,increase in dead-cell fraction,[7]; 1 µM,0.0021
same,increase in dead-cell fraction,[7]; 3.162 µM,0.0075
same,increase in dead-cell fraction,[7]; 10 µM,0.025
same,increase in dead-cell fraction,[8]; 0.0001 µM,0.0019
same,increase in dead-cell fraction,[8]; 0.0003162 µM,-0.0012
same,increase in dead-cell fraction,[8]; 0.001 µM,0.0042
same,increase in dead-cell fraction,[8]; 0.003162 µM,0.0019
same,increase in dead-cell fraction,[8]; 0.01 µM,-0.0015
same,increase in dead-cell fraction,[8]; 0.03162 µM,0
same,increase in dead-cell fraction,[8]; 0.1 µM,0.0003
same,increase in dead-cell fraction,[8]; 0.3162 µM,0.0166
same,increase in dead-cell fraction,[8]; 1 µM,0.392
same,"GR50, 72 h",[9],6.8 µM
same,"GR50, 72 h",[10],0.00559 µM
same,"GR50, 72 h",[11],0.0752 µM
same,"GR50, 72 h",[12],0.33 µM
same,"GR50, 72 h",[13],5.11 µM
same,"GR50, 72 h",[14],0.0947 µM
same,"GR50, 72 h",[15],0.376 µM
same,"GR50, 72 h",[16],8 µM
same,"GR50, 72 h",[17],0.0163 µM
same,"GR50, 72 h",[18],4.26 µM
same,"GR50, 72 h",[19],> 1 µM
HCC38,increase in dead-cell fraction,[1]; 0.0003162 µM,0.0028
same,increase in dead-cell fraction,[1]; 0.001 µM,-0.0069
same,increase in dead-cell fraction,[1]; 0.003162 µM,0.0044
same,increase in dead-cell fraction,[1]; 0.01 µM,0.0202
same,increase in dead-cell fraction,[1]; 0.03162 µM,0.0549
same,increase in dead-cell fraction,[1]; 0.1 µM,0.0669
same,increase in dead-cell fraction,[1]; 0.3162 µM,0.0676
same,increase in dead-cell fraction,[1]; 1 µM,0.0915
same,increase in dead-cell fraction,[1]; 3.162 µM,0.0488
same,increase in dead-cell fraction,[2]; 0.0001 µM,-0.0032
same,increase in dead-cell fraction,[2]; 0.0003162 µM,-0.0125
same,increase in dead-cell fraction,[2]; 0.001 µM,-0.0108
same,increase in dead-cell fraction,[2]; 0.003162 µM,-0.0127
same,increase in dead-cell fraction,[2]; 0.01 µM,0.0353
same,increase in dead-cell fraction,[2]; 0.03162 µM,0.436
same,increase in dead-cell fraction,[2]; 0.1 µM,0.514
same,increase in dead-cell fraction,[2]; 0.3162 µM,0.511
same,increase in dead-cell fraction,[2]; 1 µM,0.536
same,increase in dead-cell fraction,[3]; 0.0001 µM,-0.0033
same,increase in dead-cell fraction,[3]; 0.0003162 µM,-0.0036
same,increase in dead-cell fraction,[3]; 0.001 µM,-0.0076
same,increase in dead-cell fraction,[3]; 0.003162 µM,-0.0032
same,increase in dead-cell fraction,[3]; 0.01 µM,0.0133
same,increase in dead-cell fraction,[3]; 0.03162 µM,0.0431
same,increase in dead-cell fraction,[3]; 0.1 µM,0.249
same,increase in dead-cell fraction,[3]; 0.3162 µM,0.303
same,increase in dead-cell fraction,[3]; 1 µM,0.593
same,increase in dead-cell fraction,[4]; 0.001 µM,-0.0042
same,increase in dead-cell fraction,[4]; 0.003162 µM,0.0013
same,increase in dead-cell fraction,[4]; 0.01 µM,0.0118
same,increase in dead-cell fraction,[4]; 0.03162 µM,0.0031
same,increase in dead-cell fraction,[4]; 0.1 µM,0.0263
same,increase in dead-cell fraction,[4]; 0.3162 µM,0.0209
same,increase in dead-cell fraction,[4]; 1 µM,0.026
same,increase in dead-cell fraction,[4]; 3.162 µM,0.0204
same,increase in dead-cell fraction,[4]; 10 µM,0.0467
same,increase in dead-cell fraction,[5]; 0.001 µM,0.0177
same,increase in dead-cell fraction,[5]; 0.003162 µM,0.0096
same,increase in dead-cell fraction,[5]; 0.01 µM,0.0258
same,increase in dead-cell fraction,[5]; 0.03162 µM,0.0545
same,increase in dead-cell fraction,[5]; 0.1 µM,0.0758
same,increase in dead-cell fraction,[5]; 0.3162 µM,0.0601
same,increase in dead-cell fraction,[5]; 1 µM,0.0699
same,increase in dead-cell fraction,[5]; 3.162 µM,0.0988
same,increase in dead-cell fraction,[5]; 10 µM,0.415
same,increase in dead-cell fraction,[6]; 0.0003162 µM,0.0178
same,increase in dead-cell fraction,[6]; 0.001 µM,0.006
same,increase in dead-cell fraction,[6]; 0.003162 µM,0.0166
same,increase in dead-cell fraction,[6]; 0.01 µM,0.0088
same,increase in dead-cell fraction,[6]; 0.03162 µM,0.0102
same,increase in dead-cell fraction,[6]; 0.1 µM,-0.0035
same,increase in dead-cell fraction,[6]; 0.3162 µM,0.0102
same,increase in dead-cell fraction,[6]; 1 µM,0.0009
same,increase in dead-cell fraction,[6]; 3.162 µM,0.0842
same,increase in dead-cell fraction,[7]; 0.001 µM,0.0173
same,increase in dead-cell fraction,[7]; 0.003162 µM,0.0254
same,increase in dead-cell fraction,[7]; 0.01 µM,0.0387
same,increase in dead-cell fraction,[7]; 0.03162 µM,0.0378
same,increase in dead-cell fraction,[7]; 0.1 µM,0.0296
same,increase in dead-cell fraction,[7]; 0.3162 µM,0.0344
same,increase in dead-cell fraction,[7]; 1 µM,0.0408
same,increase in dead-cell fraction,[7]; 3.162 µM,0.0384
same,increase in dead-cell fraction,[7]; 10 µM,0.172
same,increase in dead-cell fraction,[8]; 0.0001 µM,-0.0026
same,increase in dead-cell fraction,[8]; 0.0003162 µM,-0.0024
same,increase in dead-cell fraction,[8]; 0.001 µM,-0.0081
same,increase in dead-cell fraction,[8]; 0.003162 µM,0.0129
same,increase in dead-cell fraction,[8]; 0.01 µM,0.0083
same,increase in dead-cell fraction,[8]; 0.03162 µM,0.0066
same,increase in dead-cell fraction,[8]; 0.1 µM,0.0013
same,increase in dead-cell fraction,[8]; 0.3162 µM,0.112
same,increase in dead-cell fraction,[8]; 1 µM,0.449
same,"GR50, 72 h",[9],> 10 µM
same,"GR50, 72 h",[10],0.00325 µM
same,"GR50, 72 h",[11],0.00948 µM
same,"GR50, 72 h",[12],0.309 µM
same,"GR50, 72 h",[13],2 µM
same,"GR50, 72 h",[14],0.13 µM
same,"GR50, 72 h",[15],0.0446 µM
same,"GR50, 72 h",[16],> 10 µM
same,"GR50, 72 h",[17],0.452 µM
same,"GR50, 72 h",[18],0.96 µM
same,"GR50, 72 h",[19],0.22 µM
